# Assay results: patent US20080312160A1, “METHOD OF TREATING ENTERITIS, […], AND DIARRHEA FROM C. DIFFICILE WITH AN A2A ADENOSINE RECEPTOR AGONIST” (priority 2007, published 2008)
# Peptide text beside a SMILES is read from it.
# Experiments:
# [1] = test system: Toxin A-induced secretion in rabbit ileal loops; test: Rabbit ileal loops, toxin A-induced secretion (Example 3); type: in vivo, New Zealand white rabbits
# Source text: Rabbit Ileal Loops: The animal experiment protocol was approved by the Animal Care and Use Committee at the University of Virginia. Eight New Zealand white rabbits weighing between 2.5-3 kg were used for this experiment. Each rabbit was fasted overnight. On the day of the experiment, the rabbits were anesthetized intramuscularly using a ketamine and xylazine solution in a 2:1 ratio. An intravenous line was placed in the ear vein of each rabbit for administration of the adenosine analog, ATL 370 (Adenosine Therapeutics) or a phosphate buffered saline placebo (PBS). Once anesthetized, a midline abdominal incision was made and the ileum was exposed. A measured amount of ileum was injected with 5 mL of PBS to flush any remaining fecal material. After the ileum was flushed, 10 loops of 2.5-5 cm each were ligated using double ties, with 0.5-1 cm of space between each loop.
# Once the bowel was exposed and ligated, each rabbit received a 250 μL IV injection of PBS (Toxin A and Toxin A/Alanyl glutamine groups) or 1.5 ug/250 μL of ATL 370 (Toxin A/Adenosine and Toxin A/Adenosine/Alanyl-glutamine groups). An additional dose of either PBS or ATL 370 was administered 2 hours after the first dose for a total of 2 doses. Each dose was followed by a 250-500 μL heparin saline injection to prevent the IV from clotting.
# A total of 79 loops were studied, of which 15 loops from 8 animals served as controls. Each of the control loops were injected intraluminally with 1 mL of a sterile PBS solution. The remaining 64 loops were injected intraluminally with 20 μg/500 μL of Toxin A (TechLab) and combined with either 500 μL PBS (Toxin A and Toxin A/Adenosine groups) or 500 μL of a […], 30 mM, 10 mM, or 3 mM alanyl-glutamine solution (Toxin A/Alanyl-glutamine and Toxin A/Adenosine/Alanyl-glutamine groups). The ileal loops were replaced intraperitoneally and the abdomimal incision was sutured. Sedation continued throughout the procedure and were euthanized after 4 hours.
# Measurement of intestinal secretion: After 4 hours of incubation, the animals were euthanized and the ligated loops were immediately removed. The length of each loop was measured and incised and the intraluminal secretion was quantified. The volume to length ratio (V:L) was measured as milliliters per centimeter per loop. The gross description of intestinal fluid (serous, serosanguinous, hemorrhagic or purulent) was documented.
# [2] = test system: Toxin A-induced secretion in rabbit ileal loops; test: as above; type: in vivo, New Zealand white rabbits; remark: listed apart in the source
# [3] = test system: C. difficile toxin A-induced inflammation and secretion in rabbit ileal loops; type: in vivo, New Zealand white rabbits; details: rabbit, in vivo
# Method: Materials and Methods: New Zealand white rabbits weighing about 2 kg are fasted overnight. Under anesthesia with ketamine (60-80 mg/kg) and xylazine (5-10 mg/kg) administered intramuscularly, a midline abdominal incision is performed to expose the small bowel. After the ileum is flushed, four-cm loops are ligated using double ties with a 1 cm interval between loops. Each of the control loops is injected intraluminally with 1 mL solution of PBS with either C. difficile toxin A (toxin A) (Techlab, Blacksburg, Va.) at 10 μg/mL. Loops from another set of rabbits are treated with the adenosine A2A agonists, JMR 193 (ATL 193) (10 nM, 100 nM, or 1 uM doses) or ATL 146e ([…], 100 nM, 1 uM doses) immediately before the enterotoxin is administered. In addition a rabbit is treated with A2A agonist, ATL 313 (100 nM), alone and another rabbit treated with ATL 313 with alanyl-glutamine (25 mM). After 5 hours of incubation, the ligated small intestinal loops are removed. The length of each ligated ileal segment is measured and intraluminal fluid was quantified. Volume to length ratio, V/L (mL/cm), per loop is calculated. Samples of intestinal stained with hematoxylin-eosin and graded from 0 (none) to 4 (worst) based on the degree of mucosal disruption, increase in cellularity and intensity of vascular congestion.
# [4] = test system: murine ileal loops injected with Clostridium difficile toxin A (TxA); test: TxA-induced enteritis in ligated murine ileal loops: loop weight and secretion volume; type: in vivo, mice
# Method: For this study, 174 male Swiss mice, 25-30 g body weight, from the animal colony of the Federal University of Ceara were used. The animals received water and food ad libitum.
# (§1) Mice were fasted overnight, but allowed access to water, and then anesthetized with ketamine and xylazine (60 and 5 mg/Kg intramuscularly, respectively). Through a midline laparotomy, one 4-cm ileal loop was ligated and injected with either 0.1 ml of PBS pH 7.4 (control) or buffer containing TxA (1-10 μg). The abdomen was closed, and the animals were allowed to regain consciousness. Three hours after administration of TxA, mice were sacrificed and the intestinal loops were removed. The loop length, weight, and fluid volume were recorded. A portion of the loop was frozen at −70° C. for measurement of myeloperoxidase (MPO) and ADA activities and TNF-α concentration. The remaining tissue was fixed in 10% formalin and embedded in paraffin, and sections were stained with hematoxylin and eosin for histological grading of ileal inflammation. Some mice were injected with ATL 313 ([…] final concentration) immediately followed by PBS or TxA (5 μg); another group was injected with ZM241385 (5 nM), the selective A2A AR antagonist, immediately followed by PBS or ATL 313 (5 nM)+TxA (5 μg) in the ileal loop. In another experiment, TxA (5 μg) was injected into the ileal loop, the abdomen was closed, and, 30 min later, the abdomen was reopened and ATL 313 (5 nM) administered.
# [5] = test system: Clostridium difficile toxin A (TxA)-induced histological alterations; test: Histological grading of ileal inflammation, murine ileal loops; type: in vivo, mice
# Method: as §1
# The severity of inflammation was scored in coded slides by a pathologist on a scale of 1 (mild) to 3 (severe) for epithelial damage, edema, and neutrophil infiltration.
# [6] = test system: Clostridium difficile toxin A-induced TNF-α production; test: Quantification of TNF-α by ELISA in ileal tissue; type: in vivo, mice; details: ZM241385 + ATL 313 + TxA
# Method: as §1, with “In another experiment, TxA (5 μg) was injected into the ileal loop, the abdomen was closed, and, 30 min later, the abdomen was reopened and ATL 313 (5 nM) administered.” left out
# Ileal tissue was harvested from animals in order to measure TNF-α concentration by enzyme-linked immunosorbent assay (ELISA). The results are expressed as pg/mL of TNF-α.
# [7] = ZM241385 5 nM + ATL 313 5 nM + TxA 5 μg
compound,measurement,setting,value
C[C@H](N)C(=O)N[C@@H](CCC(N)=O)C(=O)O [alanyl-glutamine] (H-Ala-Gln-OH),V:L ratio,"[1]; toxin A mixed with alanyl-glutamine 3 mM, intraluminal, 4 hours",0.96 mL/cm
same,V:L ratio,"[1]; toxin A mixed with alanyl-glutamine 10 mM, intraluminal, 4 hours",0.84 mL/cm
same,V:L ratio,"[1]; toxin A mixed with alanyl-glutamine 30 mM, intraluminal, 4 hours",0.67 mL/cm
same,"loops hemorrhagic, purulent, or a combination of the two",[1]; toxin A/alanyl-glutamine loops (11/15),73%
same,V:L ratio,"[2]; toxin A mixed with alanyl-glutamine 100 mM, intraluminal, 4 hours",0.44 mL/cm
"CCNC(=O)C1OC(n2cnc3c(N)nc(C#CCC4CCC(C(=O)OC)CC4)nc32)C(O)C1O (stereo not drawn) [ATL 146e, 4-{3-[6-Amino-9-(5-ethylcarbamoyl-3,4-dihydroxy-tetrahydro-furan-2-yl)-9H-purin-2-yl]-prop-2-ynyl}-cyclohexanecarboxylic acid methyl ester]",inflammation induced by toxin A (histology score 0 to 4),[3],reduced
same,toxin A-induced secretion (volume to length ratio),[3],not consistently ameliorated
"Nc1nc(NCCc2ccc(O)cc2)nc2nc(-c3ccco3)nn12 [ZM241385, 4-[2-(7-Amino-2-furan-2-yl-[1,2,4]triazolo[1,5-a][1,3,5]triazin-5-ylamino)-ethyl]-phenol, reference compound]",secretion volume/ileal loop length ratio,[4]; [7],significantly reversed the protective effect of ATL 313
same,weight/ileal loop length ratio,[4]; [7],significantly reversed the protective effect of ATL 313
same,secretion volume/ileal loop length,"[4]; ZM241385 alone, no TxA, PBS=1.25±1.25",0.0 ± 0.0 µL/cm
same,weight/ileal loop length,"[4]; ZM241385 alone, no TxA, PBS=34.5±3.2",19.9 ± 0.9 mg/cm
same,median injury score,"[5]; ZM241385 + ATL 313 + TxA, median, range",2.5
same,median injury score,"[5]; compound alone, no TxA, median(range)",0(0-0)
same,TNF-α production in ileal tissue,[6],blocked ATL313 action
"Nc1nc(C#CCC2CCN(C(=O)Oc3ccc(Cl)cc3)CC2)nc2c1ncn2C1OC(C(=O)NC2CC2)C(O)C1O (stereo not drawn) [ATL 370, 4-{3-[6-Amino-9-(5-cyclopropylcarbamoyl-3,4-dihydroxy-tetrahydro-furan-2-yl)-9H-purin-2-yl]-prop-2-ynyl}-piperidine-1-carboxylic acid 4-chloro-phenyl ester]",V:L ratio,"[1]; ATL 370 IV 1.5 ug x 2 doses + intraluminal toxin A only, n=8, p=0.35 vs toxin A",0.44 mL/cm
same,V:L ratio,[1]; ATL 370 IV + toxin A + alanyl-glutamine 3 mM,0.21 mL/cm
same,V:L ratio,[1]; ATL 370 IV + toxin A + alanyl-glutamine 10 mM,0.20 mL/cm
same,V:L ratio,[1]; ATL 370 IV + toxin A + alanyl-glutamine 30 mM,0.14 mL/cm
same,loops purulent,"[1]; ATL 370 IV + toxin A + alanyl-glutamine, all doses (7/16)",44%
same,number of hemorrhagic loops,"[1]; ATL 370 IV + toxin A + alanyl-glutamine, all doses (16 loops)",one
same,loops either hemorrhagic or purulent,[1]; ATL 370 IV + toxin A only (10/16),63%
same,V:L ratio,"[2]; ATL 370 IV + toxin A + alanyl-glutamine 100 mM, n=4, p<0.001 vs toxin A",0.05 mL/cm
"CCNC(=O)C1OC(n2cnc3c(N)nc(C#CCC4CCC(COC(C)=O)CC4)nc32)C(O)C1O (stereo not drawn) [JMR 193, Acetic acid 4-{3-[6-amino-9-(5-ethylcarbamoyl-3,4-dihydroxy-tetrahydro-furan-2-yl)-9H-purin-2-yl]-prop-2-ynyl}-cyclohexylmethyl ester]",inflammation induced by toxin A (histology score 0 to 4),[3],reduced
same,toxin A-induced secretion (volume to length ratio),[3],not consistently ameliorated
